Measured values from article PMC5931107, “Clinical pharmacodynamic/exposure characterisation of the multikinase inhibitor ilorasertib (ABT-348) in a phase 1 dose-escalation trial” (British Journal of Cancer, 2018).

Tests used:
[1] = test system: Aurora B; set-up: method as in PMID 22935731; settings: Aurora B autophosphorylation, nocodazole-arrested HeLa cells; read-out: Cellular PD marker IC50 (95% confidence limits); cited from earlier work
[2] = test system: TEL:VEGFR1 catalytic domain fusion; set-up: method as in PMID 22935731; settings: BaF3 cells expressing TEL:VEGFR1, proliferation as surrogate readout; read-out: Cellular PD marker IC50 (95% confidence limits); cited from earlier work
[3] = set-up: method as in PMID 25933833; settings: doses above 80 mg PO; data from haematologic malignancies study i.v. arm; cited from earlier work
[4] = test system: advanced solid tumours; assay: Tumour response, RECIST version 1.1; assay type: in vivo, human; settings: Arm II
Experimental: Disease effect endpoints were determined using Response Evaluation Criteria In Solid Tumors version 1.1. Tumour burden assessment was conducted within 21 days prior to cycle 1 day 1, every 8 weeks thereafter, and at the final visit if not performed in the past 4 weeks.

[5] = test system: c-KIT; set-up: method as in PMID 22935731; settings: KIT cellular phosphorylation, ligand stimulated; read-out: Cellular PD marker IC50 (95% confidence limits); cited from earlier work
[6] = test system: Aurora C; set-up: method as in PMID 22935731; settings: Aurora C autophosphorylation, nocodazole-arrested HeLa cells; read-out: Cellular PD marker IC50 (95% confidence limits); cited from earlier work
[7] = Safety: treatment-emergent adverse events (CTCAE v4.0), phase 1 trial; assay type: in vivo, human
Experimental: Safety was assessed on the basis of AEs, physical examination, vital signs, electrocardiograms, multiple-gated acquisition scans, and clinical laboratory test assessments. AEs were graded using National Cancer Institute CTCAE version 4.0.
Descriptive statistics were used for demographic variables. The numbers and percentages of patients with treatment-emergent AEs (TEAEs) were tabulated using the Medical Dictionary for Regulatory Activities version 16.0 system organ class and preferred term, and further classified according to CTCAE version 4.0 criteria. The safety data set included all patients who received one or more doses of ilorasertib. The pharmacokinetic data set included all patients who received one or more doses of ilorasertib and had one or more pharmacokinetic samples. Values for pharmacokinetic parameters were determined using non-compartmental methods, with data analysed separately for each arm. A repeated measures analysis was performed for Tmax and dose-normalised Cmax, AUCt, and AUC∞. The model included random effects for patient and fixed effects for dose level, day, and the interaction of dose level and day. To assess effects of exposure on pharmacodynamic biomarkers, Cmax was employed as the directly measured marker of exposure for the rapid changes in DBP and PlGF pre-steady-state, while AUC∞ reflected exposure variability at the time of post-multiple-dose skin biopsy. Descriptive statistics were used to summarise ECOG performance status. The efficacy data set included all patients who received one or more doses of ilorasertib.

[8] = 40 mg BID, basal cell carcinoma patient
[9] = 230 mg BID, adenocarcinoma of unknown primary site

Nc1ncc(-c2cnn(CCO)c2)c2scc(-c3ccc(NC(=O)Nc4cccc(F)c4)cc3)c12 [ilorasertib, Ilorasertib]
IC50 [1]: […] | IC50 [2]: 0.3 nM | Absolute oral bioavailability (estimate) [3]: […] | Best response [4, 8]: partial response | Duration of response [4, 8]: […] | Best response [4, 9]: partial response | Duration of response [4, 9]: […] | IC50 [5]: 45 nM | IC50 [6]: […] | Any grade AE, patients n (%) ([7]; Arm I PO QD, N = 23): 22 (96) | Constipation, any grade TEAE, patients n (%) ([7]; Arm I PO QD, N = 23): 6 (26) | Decreased appetite, any grade TEAE, patients n (%) ([7]; Arm I PO QD, N = 23): 8 (35) | Diarrhoea, any grade TEAE, patients n (%) ([7]; Arm I PO QD, N = 23): 5 (22) | Diarrhoea, grade 3 or 4 TEAE, patients n (%) ([7]; Arm I PO QD, N = 23): 1 (4) | Dyspnoea, any grade TEAE, patients n (%) ([7]; Arm I PO QD, N = 23): 2 (9) | Fatigue, any grade TEAE, patients n (%) ([7]; Arm I PO QD, N = 23): […] | Grade 3 or 4 AE, patients n (%) ([7]; Arm I PO QD, N = 23): 14 (61) | Headache, any grade TEAE, patients n (%) ([7]; Arm I PO QD, N = 23): 5 (22) | Hypertension, any grade TEAE, patients n (%) ([7]; Arm I PO QD, N = 23): 8 (35) | Hypertension, grade 3 or 4 TEAE, patients n (%) ([7]; Arm I PO QD, N = 23): 4 (17) | Hypokalaemia, any grade TEAE, patients n (%) ([7]; Arm I PO QD, N = 23): 3 (13) | Hypomagnesaemia, any grade TEAE, patients n (%) ([7]; Arm I PO QD, N = 23): 3 (13) | Nausea, any grade TEAE, patients n (%) ([7]; Arm I PO QD, N = 23): 8 (35) | Neutropenia, grade 3 or 4 TEAE, patients n (%) ([7]; Arm I PO QD, N = 23): 0 | Thrombocytopenia, any grade TEAE, patients n (%) ([7]; Arm I PO QD, N = 23): 3 (13) | Urinary tract infection, any grade TEAE, patients n (%) ([7]; Arm I PO QD, N = 23): 2 (9) | Vomiting, any grade TEAE, patients n (%) ([7]; Arm I PO QD, N = 23): 3 (13) | Any grade AE, patients n (%) ([7]; Arm II PO BID, N = 28): 27 (96) | Constipation, any grade TEAE, patients n (%) ([7]; Arm II PO BID, N = 28): 5 (18) | Decreased appetite, any grade TEAE, patients n (%) ([7]; Arm II PO BID, N = 28): 9 (32) | Diarrhoea, any grade TEAE, patients n (%) ([7]; Arm II PO BID, N = 28): 8 (29) | Diarrhoea, grade 3 or 4 TEAE, patients n (%) ([7]; Arm II PO BID, N = 28): 1 (4) | Dyspnoea, any grade TEAE, patients n (%) ([7]; Arm II PO BID, N = 28): 3 (11) | Fatigue, any grade TEAE, patients n (%) ([7]; Arm II PO BID, N = 28): 14 (50) | Grade 3 or 4 AE, patients n (%) ([7]; Arm II PO BID, N = 28): 15 (54) | Headache, any grade TEAE, patients n (%) ([7]; Arm II PO BID, N = 28): 4 (14) | Hypertension, any grade TEAE, patients n (%) ([7]; Arm II PO BID, N = 28): 9 (32) | Hypertension, grade 3 or 4 TEAE, patients n (%) ([7]; Arm II PO BID, N = 28): 4 (14) | Hypokalaemia, any grade TEAE, patients n (%) ([7]; Arm II PO BID, N = 28): 3 (11) | Hypomagnesaemia, any grade TEAE, patients n (%) ([7]; Arm II PO BID, N = 28): 3 (11) | Nausea, any grade TEAE, patients n (%) ([7]; Arm II PO BID, N = 28): 5 (18) | Neutropenia, grade 3 or 4 TEAE, patients n (%) ([7]; Arm II PO BID, N = 28): 2 (7) | Thrombocytopenia, any grade TEAE, patients n (%) ([7]; Arm II PO BID, N = 28): 5 (18) | Urinary tract infection, any grade TEAE, patients n (%) ([7]; Arm II PO BID, N = 28): 5 (18) | Vomiting, any grade TEAE, patients n (%) ([7]; Arm II PO BID, N = 28): 8 (29) | Any grade AE, patients n (%) ([7]; Arm III i.v., N = 7): 7 (100) | Constipation, any grade TEAE, patients n (%) ([7]; Arm III i.v., N = 7): 2 (29) | Decreased appetite, any grade TEAE, patients n (%) ([7]; Arm III i.v., N = 7): 3 (43) | Diarrhoea, any grade TEAE, patients n (%) ([7]; Arm III i.v., N = 7): 2 (29) | Diarrhoea, grade 3 or 4 TEAE, patients n (%) ([7]; Arm III i.v., N = 7): 0 | Dyspnoea, any grade TEAE, patients n (%) ([7]; Arm III i.v., N = 7): 2 (29) | Fatigue, any grade TEAE, patients n (%) ([7]; Arm III i.v., N = 7): 1 (14) | Grade 3 or 4 AE, patients n (%) ([7]; Arm III i.v., N = 7): 3 (43) | Headache, any grade TEAE, patients n (%) ([7]; Arm III i.v., N = 7): 0 | Hypertension, any grade TEAE, patients n (%) ([7]; Arm III i.v., N = 7): 3 (43) | Hypertension, grade 3 or 4 TEAE, patients n (%) ([7]; Arm III i.v., N = 7): 2 (29) | Hypokalaemia, any grade TEAE, patients n (%) ([7]; Arm III i.v., N = 7): 0 | Hypomagnesaemia, any grade TEAE, patients n (%) ([7]; Arm III i.v., N = 7): 0 | Nausea, any grade TEAE, patients n (%) ([7]; Arm III i.v., N = 7): 2 (29) | Neutropenia, grade 3 or 4 TEAE, patients n (%) ([7]; Arm III i.v., N = 7): 0 | Thrombocytopenia, any grade TEAE, patients n (%) ([7]; Arm III i.v., N = 7): 0 | Urinary tract infection, any grade TEAE, patients n (%) ([7]; Arm III i.v., N = 7): 2 (29) | Vomiting, any grade TEAE, patients n (%) ([7]; Arm III i.v., N = 7): 1 (14) | Any grade AE, patients n (%) ([7]; Total, N = 58): 56 (97) | Constipation, any grade TEAE, patients n (%) ([7]; Total, N = 58): […] | Decreased appetite, any grade TEAE, patients n (%) ([7]; Total, N = 58): 20 (34) | Diarrhoea, any grade TEAE, patients n (%) ([7]; Total, N = 58): 15 (26) | Diarrhoea, grade 3 or 4 TEAE, patients n (%) ([7]; Total, N = 58): 2 (3) | Dyspnoea, any grade TEAE, patients n (%) ([7]; Total, N = 58): 7 (12) | Fatigue, any grade TEAE, patients n (%) ([7]; Total, N = 58): 28 (48) | Grade 3 or 4 AE, patients n (%) ([7]; Total, N = 58): 32 (55) | Headache, any grade TEAE, patients n (%) ([7]; Total, N = 58): 9 (16) | Hypertension, any grade TEAE, patients n (%) ([7]; Total, N = 58): 20 (34) | Hypertension, grade 3 or 4 TEAE, patients n (%) ([7]; Total, N = 58): 10 (17) | Hypokalaemia, any grade TEAE, patients n (%) ([7]; Total, N = 58): 6 (10) | Hypomagnesaemia, any grade TEAE, patients n (%) ([7]; Total, N = 58): 6 (10) | Nausea, any grade TEAE, patients n (%) ([7]; Total, N = 58): 15 (26) | Neutropenia, grade 3 or 4 TEAE, patients n (%) ([7]; Total, N = 58): 2 (3) | Thrombocytopenia, any grade TEAE, patients n (%) ([7]; Total, N = 58): 8 (14) | Urinary tract infection, any grade TEAE, patients n (%) ([7]; Total, N = 58): 9 (16) | Vomiting, any grade TEAE, patients n (%) ([7]; Total, N = 58): […] | Grade 3 or 4 TEAE diarrhoea, patients ([7]; all 58 patients): 3% | Grade 3 or 4 TEAE hypertension, patients ([7]; all 58 patients): 17% | Grade 3 or 4 TEAE neutropenia, patients ([7]; all 58 patients): 3% | Patients with TEAEs ([7]; all 58 patients): 97% | Patients with TEAEs considered possibly or probably related to ilorasertib ([7]; all 58 patients): 66% | Patients with TEAEs that led to discontinuation ([7]; all 58 patients): 17% | Patients with grade 3 or 4 TEAEs ([7]; all 58 patients): 55% | Patients with treatment-emergent serious AEs ([7]; all 58 patients): 36% | Patients with treatment-related grade 3 or 4 TEAEs ([7]; all 58 patients): 28% | Serious AE fatigue, patients ([7]; all 58 patients): 3% | Serious AE small intestinal obstruction, patients ([7]; all 58 patients): 7% | TEAE constipation, patients ([7]; all 58 patients): 22% | TEAE decreased appetite (anorexia), patients ([7]; all 58 patients): 34% | TEAE diarrhoea, patients ([7]; all 58 patients): 26% | TEAE fatigue, patients ([7]; all 58 patients): 48% | TEAE hypertension, patients ([7]; all 58 patients): 34% | TEAE nausea, patients ([7]; all 58 patients): 26% | TEAE vomiting, patients ([7]; all 58 patients): […] | Treatment-related TEAE decreased appetite, patients ([7]; all 58 patients): 19% | Treatment-related TEAE diarrhoea, patients ([7]; all 58 patients): 14% | Treatment-related TEAE fatigue, patients ([7]; all 58 patients): 24% | Treatment-related TEAE hypertension, patients ([7]; all 58 patients): 29% | Treatment-related TEAE nausea, patients ([7]; all 58 patients): 17% | Treatment-related TEAE thrombocytopenia, patients ([7]; all 58 patients): 14% | Treatment-related TEAE vomiting, patients ([7]; all 58 patients): 10% | Treatment-related grade 3 or 4 diarrhoea, patients ([7]; all 58 patients): 3% | Treatment-related grade 3 or 4 hypertension, patients ([7]; all 58 patients): 14% | Treatment-related grade 3 or 4 neutropenia, patients ([7]; all 58 patients): 3% | Relatedness of deaths to ilorasertib (investigator) ([7]; in vivo): none of the deaths were considered related to ilorasertib | Deaths resulting from TEAEs ([7]; one patient in Arm I, two in Arm II, within 30 days of discontinuing the study): three patients
